From ChEMBL document CHEMBL1201862, “PubChem BioAssay data set” (2004)
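Method: 48-hour compound exposure of cells in 96-well plates, five concentrations, linear interpolation of endpoints. Abbreviation: GI50, concentration required for 50% inhibition of growth.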 Calls of active or inactive are those of the source. No stated cut-off is given here; in the data, active = GI50 up to about 1.1 µM and inactive = higher.

Legend:
Assay in all cases: NCI-60 cell line screen, 48 h
786-0 = system: 786-0
ACHN = system: ACHN
LOX IMVI = system: LOX IMVI
M19-MEL = system: M19-MEL
MOLT-4 = system: MOLT-4
NCI-H460 = system: NCI-H460
OVCAR-4 = system: OVCAR-4
OVCAR-5 = system: OVCAR-5
RPMI-8226 = system: RPMI-8226
SF-295 = system: SF-295
SK-MEL-28 = system: SK-MEL-28
SN12C = system: SN12C
SR = system: SR
U-251 = system: U-251
CAKI-1 = system: CAKI-1
HCT-116 = system: HCT-116

Measured: GI50

CCOC(=O)C1Oc2ccc([N+](=O)[O-])c3c2C1(O)CCC3 (stereo not given)
inactive: 786-0 > 100 µM | ACHN > 100 µM | LOX IMVI > 100 µM | M19-MEL > 100 µM | MOLT-4 > 100 µM | NCI-H460 33.4 µM | OVCAR-4 > 100 µM | OVCAR-5 > 100 µM | RPMI-8226 > 100 µM | SF-295 > 100 µM | SK-MEL-28 > 100 µM | SN12C > 100 µM | SR > 100 µM | U-251 > 100 µM

COC(=O)c1cc(Br)c(Br)n1C
inactive: 786-0 > 100 µM | ACHN > 100 µM | CAKI-1 > 100 µM | HCT-116 > 100 µM | LOX IMVI > 100 µM | M19-MEL > 100 µM | MOLT-4 70.3 µM | OVCAR-4 > 100 µM | OVCAR-5 > 100 µM | SF-295 > 100 µM | SK-MEL-28 > 100 µM | SN12C > 100 µM | SR 33.9 µM | U-251 > 100 µM

CC(C)(C)OC(=O)NC(CO)c1cccc(OCc2ccccc2)c1 (stereo not given)
inactive: 786-0 > 100 µM | ACHN 71.4 µM | CAKI-1 > 100 µM | HCT-116 > 65.2 µM | LOX IMVI 49 µM | M19-MEL > 89.7 µM | MOLT-4 30.3 µM | NCI-H460 35.3 µM | OVCAR-4 99.8 µM | OVCAR-5 > 100 µM | RPMI-8226 43.4 µM | SF-295 63.4 µM | SK-MEL-28 > 100 µM | SN12C > 100 µM | SR 86.3 µM | U-251 94.6 µM

O=C(O)CCSC(=O)Nc1cccc2ccccc12
inactive: 786-0 > 100 µM | ACHN > 100 µM | CAKI-1 > 100 µM | HCT-116 > 100 µM | LOX IMVI > 100 µM | M19-MEL > 100 µM | MOLT-4 > 100 µM | NCI-H460 > 100 µM | OVCAR-4 > 100 µM | OVCAR-5 > 100 µM | RPMI-8226 > 100 µM | SF-295 > 100 µM | SK-MEL-28 > 100 µM | SN12C > 100 µM | SR > 100 µM | U-251 > 100 µM

Cc1nn2c(=O)n(-c3cccc(-n4nnc5c(-c6ccccc6)c(C)nn5c4=O)c3C)nnc2c1-c1ccccc1
inactive: 786-0 94.4 µM | ACHN 18.7 µM | CAKI-1 39.4 µM | HCT-116 15.8 µM | LOX IMVI 27.7 µM | M19-MEL 23.6 µM | MOLT-4 11.1 µM | NCI-H460 18.5 µM | OVCAR-4 15.6 µM | OVCAR-5 > 100 µM | RPMI-8226 17.6 µM | SF-295 44.9 µM | SN12C 17.1 µM | SR 12.9 µM | U-251 25.2 µM

C=C(C)C1CCC2(C)CC1c1c(c(C)cc3c1[nH]c1ccccc13)O2 (stereo not given)
inactive: 786-0 > 25 µM | ACHN > 25 µM | HCT-116 > 25 µM | LOX IMVI > 25 µM | M19-MEL > 25 µM | MOLT-4 17.5 µM | NCI-H460 > 25 µM | OVCAR-4 11.7 µM | OVCAR-5 > 25 µM | RPMI-8226 > 25 µM | SK-MEL-28 > 25 µM | SN12C > 25 µM | SR > 25 µM | U-251 > 25 µM

COc1ccc([C@H]2CC(=O)N3CCCC3N2)cc1 (stereo not given in full)
inactive: 786-0 > 100 µM | ACHN > 100 µM | CAKI-1 > 100 µM | HCT-116 > 100 µM | M19-MEL > 100 µM | MOLT-4 > 100 µM | NCI-H460 > 100 µM | OVCAR-4 > 100 µM | OVCAR-5 > 100 µM | RPMI-8226 > 100 µM | SF-295 > 100 µM | SK-MEL-28 > 100 µM | SN12C > 100 µM | SR > 100 µM | U-251 > 100 µM

O=C(Cc1ccccc1)NN1C(=O)C(Cl)C1c1ccc(O)cc1 (stereo not given)
inactive: 786-0 > 100 µM | ACHN > 100 µM | CAKI-1 > 100 µM | HCT-116 > 100 µM | LOX IMVI > 100 µM | M19-MEL > 100 µM | MOLT-4 > 100 µM | NCI-H460 > 100 µM | OVCAR-5 > 100 µM | RPMI-8226 > 100 µM | SF-295 > 100 µM | SK-MEL-28 > 100 µM | SN12C > 100 µM | SR 43.1 µM | U-251 > 100 µM

CC1CCC(O)C(C(O)CC2CC(=O)N(C)C(=O)C2)C1 (stereo not given)
inactive: 786-0 > 100 µM | ACHN > 100 µM | CAKI-1 > 100 µM | HCT-116 > 100 µM | LOX IMVI > 100 µM | M19-MEL > 100 µM | MOLT-4 > 100 µM | NCI-H460 > 100 µM | OVCAR-4 > 100 µM | OVCAR-5 > 100 µM | RPMI-8226 > 100 µM | SF-295 > 100 µM | SK-MEL-28 > 100 µM | SN12C > 100 µM | SR > 100 µM | U-251 > 100 µM

C=CCC1([C@H](C)[C@@H](OC(C)=O)c2cc(OC)c(OC)c(OC)c2)C[C@@H](OC)CCC1=O (stereo not given in full)
inactive: 786-0 11.7 µM | ACHN 19.8 µM | CAKI-1 70.8 µM | HCT-116 13.1 µM | M19-MEL 15.6 µM | MOLT-4 18.6 µM | NCI-H460 17.7 µM | OVCAR-4 25.5 µM | RPMI-8226 10.8 µM | SF-295 16 µM | SK-MEL-28 23.6 µM | SN12C 17.7 µM | SR 22.3 µM | U-251 13.8 µM

CC1=C(C#N)C(N)=C2C(C)=C(C#N)C(N)=C12
inactive: 786-0 > 100 µM | CAKI-1 > 100 µM | HCT-116 > 100 µM | LOX IMVI > 100 µM | M19-MEL > 100 µM | MOLT-4 > 100 µM | NCI-H460 > 100 µM | OVCAR-4 > 100 µM | OVCAR-5 > 100 µM | RPMI-8226 > 100 µM | SF-295 > 100 µM | SN12C > 100 µM | SR > 100 µM | U-251 > 100 µM

COc1ccc(/C=C\c2cc(OC)c(OC(C)=O)c(OC)c2)cc1
inactive: 786-0 14.9 µM | ACHN 27.9 µM | CAKI-1 25.1 µM | HCT-116 8.53 µM | M19-MEL 8.91 µM | MOLT-4 6.43 µM | NCI-H460 2.49 µM | OVCAR-4 26.4 µM | OVCAR-5 28.7 µM | RPMI-8226 12.8 µM | SK-MEL-28 3.43 µM | SN12C 7.21 µM | SR 13.3 µM | U-251 4.21 µM

CCOC(=O)C1S/C(=N\c2ccc(Cl)c(Cl)c2)N=C1C (stereo not given)
inactive: 786-0 17.5 µM | ACHN 29.5 µM | CAKI-1 35.1 µM | LOX IMVI 23.4 µM | M19-MEL 26.2 µM | MOLT-4 18.8 µM | NCI-H460 49.8 µM | OVCAR-4 20.3 µM | OVCAR-5 44.1 µM | RPMI-8226 17.8 µM | SF-295 29.7 µM | SK-MEL-28 73.8 µM | SN12C 19.6 µM | U-251 48.3 µM

N/C(=N\N=C=C1C(=O)Nc2ccc(F)cc21)NO
inactive: 786-0 > 100 µM | ACHN 59.8 µM | CAKI-1 28 µM | HCT-116 > 100 µM | LOX IMVI > 100 µM | M19-MEL > 100 µM | MOLT-4 > 100 µM | NCI-H460 74.5 µM | OVCAR-4 > 100 µM | SF-295 > 100 µM | SK-MEL-28 > 100 µM | SN12C > 100 µM | SR > 100 µM | U-251 > 100 µM
